Test results published in ChEMBL document CHEMBL4680351, “Antimicrobial and cytotoxic effects of ammonium derivatives of diterpenoids steviol and isosteviol” (Bioorg Med Chem, 2021).
Values after ≈ are worked out from the molar mass of the structure shown. Active and inactive are the calls of the source. The calls are words filed in the database; no cut-off is given here.

What was measured:
MCF7 [1] = assay: Induction of apoptosis in human MCF7 cells assessed as activation of caspase-8 at 5 uM after 24 hrs by fluorescence assay; type: functional, cell-based
Staphylococcus aureus [2] = assay: Bacteriostatic activity against Staphylococcus aureus MRSA-2 measured every 24 hrs for 5 days by serial dilution method; type: functional, organism-based; settings: time 5.0 day
Staphylococcus aureus [3] = assay: Induction of morphological changes in Staphylococcus aureus 209P assessed as cytoplasmic disintegration at 3 uM by TEM analysis; type: functional, organism-based
Cell membrane [4] = assay: Induction of cytoplasmic membrane damage in Staphylococcus aureus 209P assessed as crystal violet absorption at 3 uM after 30 mins by crystal violet staining based microplate reader analysis (reference value: […] %); type: subcellular
Staphylococcus aureus [5] = assay: Antibacterial activity against Staphylococcus aureus MRSA-2 assessed as bacterial growth inhibition in Mueller-Hinton broth 2 measured every 24 hrs for 5 days by serial dilution method; type: functional; settings: MRSA-2, 120 h, time 5 day
MCF7 [6] = assay: Cytotoxicity against human MCF7 cells assessed as reduction in cell viability by DAPI staining based assay; type: functional
MCF7 [7] = assay: Induction of mitochondrial membrane potential loss in human MCF7 cells assessed as cell population with mitochondrial membrane potential collapse at 5 uM after 24 hrs by JC-10 staining-based flow cytometric analysis (reference value: 1.05 %); type: functional
MCF7 [8] = assay: Induction of apoptosis in human MCF7 cells assessed as dead cells at 5 uM after 24 hrs by annexin V-FITC and propidium iodide staining based flow cytometry (reference value: 0.15 %); type: functional
Staphylococcus aureus [9] = assay: Induction of morphological changes in Staphylococcus aureus 209P assessed as cell lysis at 3 uM by TEM analysis; type: functional, organism-based
[10] = Selectivity index, ratio of IC50 for human WI-38 cells to IC50 for human HepG2 cells; type: toxicity; settings: WI-38 cells versus HepG2 cells, read-out: Ratio IC50
MCF7 [11] = assay: Induction of apoptosis in human MCF7 cells assessed as activation of p53 at 5 uM after 24 hrs by fluorescence assay; type: functional, cell-based
MCF7 [12] = assay: Induction of apoptosis in human MCF7 cells assessed as viable cells at 10 uM after 24 hrs by annexin V-FITC and propidium iodide staining based flow cytometry (reference value: 91.42 %); type: functional; settings: read-out: Activity
Staphylococcus aureus [13] = assay: Bacteriostatic activity against Staphylococcus aureus MRSA-1 measured every 24 hrs for 5 days by serial dilution method; type: functional, organism-based
MCF7 [14] = assay: Induction of apoptosis in human MCF7 cells assessed as early apoptotic cells at 10 uM after 24 hrs by annexin V-FITC and propidium iodide staining based flow cytometry (reference value: 5.03 %); type: functional
Cell membrane [15] = assay: Induction of cytoplasmic membrane damage in Staphylococcus aureus 209P assessed as crystal violet absorption at 6 uM after 30 mins by crystal violet staining based microplate reader analysis (reference value: […] %); type: subcellular
Staphylococcus aureus [16] = assay: Induction of morphological changes in Staphylococcus aureus 209P assessed as cell wall damage at 3 uM by TEM analysis; type: functional, organism-based
T98G = assay: Cytotoxicity against human T98G cells assessed as reduction in cell viability by DAPI staining based assay
MCF7 [17] = assay: Induction of apoptosis in human MCF7 cells assessed as activation of JNK at 5 uM after 24 hrs by fluorescence assay; type: functional, cell-based
PC-3 = assay: Cytotoxicity against human PC-3 cells assessed as reduction in cell viability by DAPI staining based assay
Staphylococcus aureus [18] = assay: Antibacterial activity against Staphylococcus aureus 209P assessed as bacterial growth inhibition; type: functional
MCF7 [19] = assay: Induction of mitochondrial membrane potential loss in human MCF7 cells assessed as cell population with mitochondrial membrane potential collapse at 10 uM after 24 hrs by JC-10 staining-based flow cytometric analysis (reference value: 1.05 %); type: functional
[20] = Selectivity index, ratio of IC50 for human WI-38 cells to IC50 for human MCF7 cells; type: toxicity; settings: WI-38 cells versus MCF7 cells, read-out: Ratio IC50
Staphylococcus aureus [21] = assay: Antibacterial activity against Staphylococcus aureus MRSA-1 assessed as bacterial growth inhibition in Mueller-Hinton broth 2 measured every 24 hrs for 5 days by serial dilution method; type: functional; settings: MRSA-1, 120 h, time 5 day
MCF7 [22] = assay: Induction of apoptosis in human MCF7 cells assessed as late apoptotic cells at 10 uM after 24 hrs by annexin V-FITC and propidium iodide staining based flow cytometry (reference value: 3.4 %); type: functional
MCF7 [23] = assay: Induction of apoptosis in human MCF7 cells assessed as early apoptotic cells at 5 uM after 24 hrs by annexin V-FITC and propidium iodide staining based flow cytometry (reference value: 5.03 %); type: functional
HepG2 = assay: Cytotoxicity against human HepG2 cells assessed as reduction in cell viability by DAPI staining based assay
Staphylococcus aureus [24] = assay: Bactericidal activity against Staphylococcus aureus MRSA-2 measured every 24 hrs for 5 days by serial dilution method; type: functional; settings: MRSA-2, 120 h, time 5 day
[25] = Selectivity index, ratio of IC50 for human WI-38 cells to IC50 for human A549 cells; type: toxicity; settings: WI-38 cells versus A549 cells, read-out: Ratio IC50
Cell membrane [26] = assay: Induction of cytoplasmic membrane damage in Staphylococcus aureus 209P assessed as crystal violet absorption at 0.7 uM after 30 mins by crystal violet staining based microplate reader analysis (reference value: […] %); type: subcellular
MCF7 [27] = assay: Induction of apoptosis in human MCF7 cells assessed as activation of caspase-9 at 5 uM after 24 hrs by fluorescence assay relative to control; type: functional
[28] = Selectivity index, ratio of IC50 for human WI-38 cells to IC50 for human HeLa cells; type: toxicity; settings: WI-38 cells versus HeLa cells, read-out: Ratio IC50
Staphylococcus aureus [29] = assay: Bactericidal activity against Staphylococcus aureus 209P measured every 24 hrs for 5 days by serial dilution method; type: functional; settings: 120 h, time 5 day
MCF7 [30] = assay: Induction of mitochondrial membrane potential loss in human MCF7 cells assessed as cell population with intact mitochondrial membrane potential at 10 uM after 24 hrs by JC-10 staining-based flow cytometric analysis (reference value: 98.73 %); type: functional
MCF7 [31] = assay: Induction of apoptosis in human MCF7 cells assessed as activation of Bcl-2 at 5 uM after 24 hrs by fluorescence assay; type: functional, cell-based
MCF7 [32] = assay: Induction of mitochondrial membrane potential loss in human MCF7 cells assessed as cell population with intact mitochondrial membrane potential at 5 uM after 24 hrs by JC-10 staining-based flow cytometric analysis (reference value: 98.73 %); type: functional
[33] = Hemolytic activity against human erythrocytes after 1 hr by digital photoelectric colorimetric method; type: ADME, cell-based, Erythrocyte
MCF7 [34] = assay: Induction of apoptosis in human MCF7 cells assessed as activation of Bad at 5 uM after 24 hrs by fluorescence assay; type: functional, cell-based
A549 = assay: Cytotoxicity against human A549 cells assessed as reduction in cell viability by DAPI staining based assay
WI-38 = assay: Cytotoxicity against human WI-38 cells assessed as reduction in cell viability by DAPI staining based assay
Cell membrane [35] = assay: Induction of cytoplasmic membrane damage in Staphylococcus aureus 209P assessed as crystal violet absorption at 1.5 uM after 30 mins by crystal violet staining based microplate reader analysis (reference value: […] %); type: subcellular
MCF7 [36] = assay: Induction of apoptosis in human MCF7 cells assessed as activation of Akt at 5 uM after 24 hrs by fluorescence assay; type: functional, cell-based
Staphylococcus aureus [37] = assay: Induction of morphological changes in Staphylococcus aureus 209P assessed as change in cytoplasmic content at 3 uM by TEM analysis; type: functional, organism-based
[38] = Selectivity index, ratio of IC50 for human WI-38 cells to IC50 for human T98G cells; type: toxicity; settings: WI-38 cells versus T98G cells, read-out: Ratio IC50
Staphylococcus aureus [39] = assay: Bacteriostatic activity against Staphylococcus aureus MRSA-2 measured every 24 hrs for 5 days by serial dilution method relative to amoxicillin; type: functional; settings: time 5 day
Staphylococcus aureus [40] = assay: Bactericidal activity against Staphylococcus aureus MRSA-1 measured every 24 hrs for 5 days by serial dilution method; type: functional; settings: MRSA-1, 120 h, time 5 day
MCF7 [41] = assay: Induction of apoptosis in human MCF7 cells assessed as dead cells at 10 uM after 24 hrs by annexin V-FITC and propidium iodide staining based flow cytometry (reference value: 0.15 %); type: functional
HeLa = assay: Cytotoxicity against human HeLa cells assessed as reduction in cell viability by DAPI staining based assay
MCF7 [42] = assay: Induction of apoptosis in human MCF7 cells assessed as late apoptotic cells at 5 uM after 24 hrs by annexin V-FITC and propidium iodide staining based flow cytometry (reference value: 3.4 %); type: functional
[43] = Selectivity index, ratio of IC50 for human WI-38 cells to IC50 for human PC-3 cells; type: toxicity; settings: WI-38 cells versus PC-3 cells, read-out: Ratio IC50
MCF7 [44] = assay: Induction of apoptosis in human MCF7 cells assessed as viable cells at 5 uM after 24 hrs by annexin V-FITC and propidium iodide staining based flow cytometry (reference value: 91.42 %); type: functional; settings: read-out: Activity
Staphylococcus aureus [45] = assay: Antibacterial activity against Staphylococcus aureus 209P assessed as bacterial growth inhibition in Mueller-Hinton broth 2 measured every 24 hrs for 5 days by serial dilution method; type: functional; settings: 120 h, time 5 day

C[C@@]12CC[C@@H]3[C@@](CC[C@H]4[C@@]3(C)CCC[C@@]4(C)C(=O)OCC[N+](C)(C)CCCCCCCCCCCC[N+](C)(C)CCOC(=O)[C@]3(C)CCC[C@@]4(C)[C@@H]5CC[C@@]6(C)C[C@]5(CC[C@@H]43)CC6=O)(CC1=O)C2.[Br-].[Br-]
Activity (MCF7 [1]): inactive
Activity (Staphylococcus aureus [2]): Active
Activity (Staphylococcus aureus [3]): Active
Activity (Cell membrane [4]): 24%
MIC (Staphylococcus aureus [5]): 1.4 µM
IC50 (MCF7 [6]): 5 µM
Activity (MCF7 [7]): 11.65%
Activity (MCF7 [8]): 16.61%
Activity (Staphylococcus aureus [9]): Active
selectivity ratio [10]: 1.3
Activity (MCF7 [11]): Active
viability at 10 µM (MCF7 [12]): 24.9%
Activity (Staphylococcus aureus [13]): Active
Activity (MCF7 [14]): 41.39%
Activity (Cell membrane [15]): 63%
Activity (Staphylococcus aureus [16]): Active
IC50 (T98G): 39.6 µM
Activity (MCF7 [17]): Active
IC50 (PC-3): 13 µM
MIC (Staphylococcus aureus [18]): 0.7 µM
Activity (MCF7 [19]): 92.1%
selectivity ratio [20]: 5
MIC (Staphylococcus aureus [21]): 2.8 µM
Activity (MCF7 [22]): 28.47%
Activity (MCF7 [23]): 27.59%
IC50 (HepG2): 19.5 µM
MBC (Staphylococcus aureus [24]): 1.4 µM
selectivity ratio [25]: 2
Activity (Cell membrane [26]): 7%
fold change (FC) (MCF7 [27]): >=2
selectivity ratio [28]: 1.1
MBC (Staphylococcus aureus [29]): 0.7 µM
Activity (MCF7 [30]): 7.76%
Activity (MCF7 [31]): inactive
Activity (MCF7 [32]): 88.28%
HC50 at 1 h [33]: 20.3 µM
Activity (MCF7 [34]): Active
IC50 (A549): 12.5 µM
IC50 (WI-38): 25 µM
Activity (Cell membrane [35]): 13%
Activity (MCF7 [36]): Active
Activity (Staphylococcus aureus [37]): Active
selectivity ratio [38]: 0.6
fold change (FC) (Staphylococcus aureus [39]): 15
MBC (Staphylococcus aureus [40]): 2.8 µM
Activity (MCF7 [41]): 5.24%
IC50 (HeLa): 22 µM
Activity (MCF7 [42]): 25.95%
selectivity ratio [43]: 1.9
viability at 5 µM (MCF7 [44]): 29.9%

C[C@@]12CC[C@@H]3[C@@](CC[C@H]4[C@@]3(C)CCC[C@@]4(C)C(=O)OCC[N+](C)(C)Cc3ccccc3)(CC1=O)C2
MIC (Staphylococcus aureus [5]): 112 µM
IC50 (MCF7 [6]): > 100 µM
IC50 (T98G): > 100 µM
IC50 (PC-3): > 100 µM
MIC (Staphylococcus aureus [18]): 55.8 µM
MIC (Staphylococcus aureus [21]): 223 µM
IC50 (HepG2): > 100 µM
MBC (Staphylococcus aureus [24]): 112 µM
MBC (Staphylococcus aureus [29]): 55.8 µM
HC50 at 1 h [33]: > 100 µM
IC50 (A549): > 100 µM
IC50 (WI-38): > 100 µM
MBC (Staphylococcus aureus [40]): 223 µM
IC50 (HeLa): > 100 µM

O=C(O)c1cn(C2CC2)c2cc(N3CCNCC3)c(F)cc2c1=O [CIPROFLOXACIN]
MIC (Staphylococcus aureus [5]): 2.7 µM (≈ 0.895 µg/mL)
MIC (Staphylococcus aureus [21]): 377 µM (≈ 125 µg/mL)
MBC (Staphylococcus aureus [24]): 2.7 µM (≈ 0.895 µg/mL)
MBC (Staphylococcus aureus [29]): 1.5 µM (≈ 0.497 µg/mL)
MBC (Staphylococcus aureus [40]): 755 µM (≈ 250 µg/mL)
MIC (Staphylococcus aureus [45]): 1.5 µM (≈ 0.497 µg/mL)
